Read-outs that look alike come from different tables or passages of the source.
Legend:
CCK receptor (pancreas) = target: T1, CCK receptor (pancreas) (Rattus norvegicus, UniProt P30551); assay: CCK Receptor Binding (Pancreas): inhibition of ^125 I-CCK-33 binding; set-up: species or system Male Sprague-Dawley rats; settings: rat pancreas membranes, ^125 I-CCK-33, 37° C., 30 minutes
T1 construct: The whole pancreas was dissected free of fat tissue and was homogenized; from tissue; host or cells: rat pancreas membranes (Sprague-Dawley)
T1 sequence (P30551 1-444): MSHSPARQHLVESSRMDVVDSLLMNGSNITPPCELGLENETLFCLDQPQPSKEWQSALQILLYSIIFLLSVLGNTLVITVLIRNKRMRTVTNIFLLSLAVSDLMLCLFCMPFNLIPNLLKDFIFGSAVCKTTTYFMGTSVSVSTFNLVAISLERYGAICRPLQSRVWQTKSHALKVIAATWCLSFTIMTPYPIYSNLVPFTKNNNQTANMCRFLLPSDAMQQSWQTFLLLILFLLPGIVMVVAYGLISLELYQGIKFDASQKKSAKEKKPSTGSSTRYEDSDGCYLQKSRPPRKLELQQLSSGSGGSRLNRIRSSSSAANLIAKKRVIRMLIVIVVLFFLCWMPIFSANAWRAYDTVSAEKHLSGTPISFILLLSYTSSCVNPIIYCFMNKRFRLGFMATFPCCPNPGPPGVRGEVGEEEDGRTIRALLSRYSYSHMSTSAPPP
Protocol: 1. CCK Receptor Binding (Pancreas)
CCK-33 was radiolabeled with ^125 I-Bolton Hunter reagent (2000 Ci/mmole) as described by Sankara et al. (J. Biol. Chem. 254: 9349-9351, 1979). Receptor binding was performed according to Innis and Snyder (Proc. Natl. Acad. Sci. 77: 6917-6921, 1980) with the minor modification of adding the additional protease inhibitors, phenylmethane sulfonyl fluoride and o-phenanthroline.
Male Sprague-Dawley rats (200-350 g) were sacrificed by decapitation. The whole pancreas was dissected free of fat tissue and was homogenized in 20 volumes of ice-cold 50 mM, Tris HCl (pH 7.7 at 25° C.) with a Brinkmann Polytron PT 10. The homogenates were centrifuged at 48,000 g for 10 min. Pellets were resuspended in Tris Buffer, centrifuged as above and resuspended in 200 volumes of binding assay buffer (50 mM Tris HCl, pH 7.7 at 25° C., 5 mM dithiothrietol, 0.1 mM bacitracin, 1.2 mM phenylmethane sulfonyl fluoride and 0.5 mM o-phenanthroline). […] All assays were run in duplicate or triplicate. The reaction mixtures were incubated at 37° C. for 30 minutes and centrifuged in a Beckman Microfuge (4 minutes) immediately after adding 1 ml of ice-cold incubation buffer. The supernatant was aspirated and discarded, pellets were counted with a Beckman gamma 5000. For Scatchard analysis (Ann. N.Y. Acad. Sci. 51: 660, 1949), ^125 I-CCK-33 was progressively diluted with increasing concentrations of CCK-33.

[1] = target: T2, CCK receptor (brain, cerebral cortex) (Cavia porcellus, UniProt H0VZC5); assay: biochemical; format: binding, Male Hartley guinea pigs; settings: guinea pig cerebral cortex, ^125 I-CCK-33, 25° C., 2 hours
T2 construct: Cerebral cortex was dissected and used as a receptor source; from tissue; host or cells: guinea pig cerebral cortex membranes (male Hartley)
T2 sequence (H0VZC5 1-426): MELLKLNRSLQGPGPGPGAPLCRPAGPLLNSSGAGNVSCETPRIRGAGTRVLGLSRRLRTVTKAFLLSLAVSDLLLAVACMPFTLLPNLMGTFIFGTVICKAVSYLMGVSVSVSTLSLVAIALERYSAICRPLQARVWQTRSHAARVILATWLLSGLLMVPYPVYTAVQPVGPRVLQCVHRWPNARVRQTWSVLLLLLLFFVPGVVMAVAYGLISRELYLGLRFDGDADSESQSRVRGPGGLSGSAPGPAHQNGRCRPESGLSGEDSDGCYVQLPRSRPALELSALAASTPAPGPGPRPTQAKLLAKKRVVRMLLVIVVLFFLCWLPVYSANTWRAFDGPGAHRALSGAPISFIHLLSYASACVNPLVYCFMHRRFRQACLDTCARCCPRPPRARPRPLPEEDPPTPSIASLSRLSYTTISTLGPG
Method in brief: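 Binding of [radiolabeled] CCK-33 measured by gamma counting of centrifuged pellets after 2 h at 25°C. Membranes came from guinea pig brain cortex, suspended in 10 mM HEPES, 5 mM MgCl2, 1 mM EGTA, 0.25 mg/ml bacitracin, 0.4% BSA.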

[2] = target: T3, Gastrin receptor (gastric glands) (Cavia porcellus, UniProt H0VZC5); assay: Gastrin Receptor Binding in Guinea Pig Gastric Glands; set-up: species or system guinea pig (male Hartley); settings: 25° C., 30 minutes
T3 construct: The washed guinea pig gastric glands prepared as above were resuspended; from tissue; host or cells: guinea pig gastric mucosal glands (male Hartley)
T3 sequence (H0VZC5 1-426): T2 sequence (H0VZC5 1-426)

[3] = read-out: IC50 ^125 I-CCK Brain
[4] = ^125 I-gastrin, read-out: IC50 ^125 I-Gastrin Gastric Glands
[5] = read-out: IC50 ^125 I-CCK Pancreas
[6] = IC50 ^125 I-Gastrin Gastric Glands

Row | SMILES | IC50 (CCK receptor (pancreas); IC50 ^125 I-CCK Pancreas) | IC50 [1, 3] | IC50 [2, 4] | IC50 (CCK receptor (pancreas); [5]) | IC50 ([1]; IC50 ^125 I-CCK Brain) | IC50 [2, 6]
1 | CN1C(=O)C(C(O)c2cn(C)c3ccccc23)N=C(c2ccccc2)c2ccccc21 (racemic) [Example 50a, 1,3-Dihydro-3(RS)-[1-hydroxy-1-[3-(1-methylindolyl)]]-methyl-1-methyl-5-phenyl-2H-1,4-benzodiazepin-2-one] | 15 µM | 2.6 µM | 1.2 µM |  |  | 
2 | CN1C(=O)C(C(O)c2cn(C)c3ccccc23)N=C(c2ccccc2)c2ccccc21 (racemic) [Example 50b, 1,3-Dihydro-3(RS)-[1-hydroxy-1-[3-(1-methylindolyl)]]-methyl-1-methyl-5-phenyl-2H-1,4-benzodiazepin-2-one] | 100 µM | 40 µM | 61 µM |  |  | 
3 | CN1C(=O)C(C(O)c2ccccc2)N=C(c2ccccc2)c2ccccc21 (racemic) [Example 51, 1,3-Dihydro-3(RS)-(1-hydroxy-1-phenyl)methyl-1-methyl-5-phenyl-2H-1,4-benzodiazepin-2-one] | > 100 µM | 32 µM | 25 µM |  |  | 
4 | CN1C(=O)C(C(O)c2cccs2)N=C(c2ccccc2)c2ccccc21 (racemic) [Example 52, 1,3-Dihydro-3(RS)-[1-hydroxy-1-(2-thienyl)]methyl-1-methyl-5-phenyl-2H-1,4-benzodiazepin-2-one] | > 100 µM | 33 µM | 26 µM |  |  | 
5 | CN1C(=O)C(O)(C(=O)c2ccsc2)N=C(c2ccccc2)c2ccccc21 (racemic) [Example 53a, 1,3-Dihydro-3-(RS)-hydroxy-1-methyl-5-phenyl-3-(3'-thienoyl)-2H-1,4-benzodiazepin-2-one] | 100 µM | 4.2 µM | 0.85 µM |  |  | 
6 | CN1C(=O)C(C(=O)c2ccsc2)=NC(O)(c2ccccc2)c2ccccc21 (racemic) [Example 53b, 1,5-Dihydro-5-(RS)-hydroxy-1-methyl-5-phenyl-3-(3'-thienoyl)-2H-1,4-benzodiazepin-2-one] |  | 100 µM | > 100 µM | 19 µM |  | 
7 | O=C1Nc2ccccc2C(c2ccccc2)=NC1Cc1c[nH]c2ccc(Br)cc12 (racemic) [Example 57, 3(RS)-[3'-(5'-Bromoindolyl)methyl]-1,3-dihydro-5-phenyl-2H-1,4-benzodiazepin-2-one] | 2.9 µM |  |  |  | 100 µM | 700 µM
8 | O=C(c1ccccc1F)c1ccccc1NC(=O)C(CN1C(=O)c2ccccc2C1=O)N1C(=O)c2ccccc2C1=O (racemic) [Example 62, 2-N-[2(RS)-3-diphthalylaminopropanoyl]amino-2'-fluorobenzophenone] |  | > 100 µM | > 1000 µM | > 100 µM |  | 
9 | NCC1N=C(c2ccccc2F)c2ccccc2NC1=O (racemic) [Example 63, 1,3-Dihydro-5-(2'-fluorophenyl)-3(RS)-aminomethyl-2H-1,4-benzodiazepin-2-on] | > 100 µM |  |  |  | > 100 µM | > 1000 µM
10 | O=C1Nc2ccccc2C(c2ccccc2F)=NC1CNc1cncc(Cl)n1 (racemic) [Example 70, 1,3-Dihydro-5-(2'-fluorophenyl)-3-(RS)-(6'-chloropyrazin-2yl)aminomethyl-2H-4-benzodiazepin-2-one] | 15 µM | 100 µM | 200 µM |  |  | 
11 | O=C(OC1N=C(c2ccccc2)c2ccccc2NC1=O)c1cc2ccccc2[nH]1 (racemic) [Example 107, 1,3-Dihydro-3-(RS)-(2-indolecarbonyloxy)-5-phenyl-2H-1,4-benzodiazepin-2-one] | 0.049 µM |  |  |  | 50 µM | > 10 µM
12 | O=C(NC1N=C(c2ccccc2F)c2ccccc2NC1=O)c1ccc(Cl)cc1 (racemic) [Example 111, 1,3-Dihydro-3-(RS)-(4-chlorophenylcarbonyl)amino-5-(2-fluorophenyl)-2H-1,4-benzodiazepin-2-one] | 0.007 µM |  |  |  | 40 µM | 8.4 µM

— patent US4820834A, “Benzodiazepine analogs” (priority 1987, dated 1989)
